Literature values in patent US5686458A, “Quinazoline deriviates for treating peptic ulcer” (Yuhan Corporation, priority 1992, dated 1997).

Test system: proton pump
Details: background statement; cited from earlier work

In the case of `COc1ccc2[nH]c([S+]([O-])Cc3ncc(C)c(OC)c3C)nc2c1` (stereo not shown) [Omeprazole, omeprazole, reference compound], the “Reversibility of the proton pump inhibition” value is listed as “irreversible”.
